According to US12116358B2, “Substituted indoles and methods of use thereof” (EPIZYME, INC., priority 2018, dated 2024):
Where two headings read alike, the source gives them in different places.

Assays:
SETD2(1434-1711) = molecular target: T1, SETD2(1434-1711) (Homo sapiens, UniProt Q9BYW2); test: SETD2 (1434-1711) assay; type: biochemical; details: read-out: SETD2 (1434-1711)
T1 construct: SETD2 (1434-1711) Assay; catalogue N/A
T1 sequence (Q9BYW2 1434-1711): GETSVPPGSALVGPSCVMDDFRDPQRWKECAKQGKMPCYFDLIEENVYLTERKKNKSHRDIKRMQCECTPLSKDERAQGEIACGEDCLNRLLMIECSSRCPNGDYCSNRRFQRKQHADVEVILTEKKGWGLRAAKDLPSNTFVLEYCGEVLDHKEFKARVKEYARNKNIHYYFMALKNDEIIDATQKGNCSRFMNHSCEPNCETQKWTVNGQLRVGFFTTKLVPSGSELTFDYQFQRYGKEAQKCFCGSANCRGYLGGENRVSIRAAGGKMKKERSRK

H3K36me3 in A549 cells = test: In-Cell Western (ICW) assay of SETD2 inhibitors (A549 assay); type: cell-based, human
Description: In-Cell Western (ICW) Assay of SETD2 Inhibitors (A549 Assay)
Representative Compounds of the Disclosure were tested in the A549 assay according the following protocol.
1. Reagents and Consumables:
Prepare plates with compounds. Seed A549 cells to the plates with compounds, 4,000 cells/well, 50 μl/well. Put the plates at room temperature on a non-vibrating surface for 20 minutes before placing in the incubator. Incubate the plate at 37° C. incubator with CO2 for 3 days. Remove plate from incubator and bring to room temperature. Blot media out of the plate and add 50 μL of ice cold 100% methanol. Incubate 30 minutes at room temperature. Remove methanol by aspiration. Wash 3× with PBST. Add 50 μL of Blocking Buffer+0.1% Tween 20. Incubate 1 hour. Remove Blocking Buffer, wash 3× with PBST. Add 20 μL of H3K36me3 (1:1000 dilution). […] Incubate overnight at 4° C. Wash plate 5× with PBS-T. Add 20 μL of DRAQ5 (1:1000) and IRDye 800CW Goat anti-Rabbit IgG (1:500). Incubate for 1 hour in the dark. Wash plate 5× with PBS-T. Wash plate 3× with water. Dry by blotting on paper towel, then centrifuge plate upside down on a thin layer of paper towels for 1 minute at 1000 rpm to remove excess reagent. Leave plate uncovered for ˜10 minutes out of direct light before reading. Read on Licor instrument.
4. Licor Instrument Settings:
Preset: Plate; Resolution: 84 μm; Quality: low; Focus offset: 4.0; 700 channel intensity: 2; and 800 channel intensity: 3.

[1] = Homo sapiens, A549 cells, read-out: SETD2 A549
[2] = A549 cells, read-out: SETD2 A549

SMILES | IC50 (SETD2(1434-1711)) [nM] | IC50 (H3K36me3 in A549 cells; [1]) [nM] | IC50 (H3K36me3 in A549 cells; [2]) [nM] | IC50 (H3K36me3 in A549 cells; Homo sapiens, A549, read-out: SETD2 A549) [nM]
Cc1ccc(F)c2cc(C(=O)Nc3ccnc(N4CCN(C)CC4)c3)[nH]c12 [Cpd. No. 340, 4-fluoro-7-methyl-N-(2-(4-methylpiperazin-1-yl)pyridin-4-yl)-1H-indole-2-carboxamide] | 200 |  |  | 1700
Cc1ccc(F)c2cc(C(=O)Nc3cc(F)cc(N4CCC(N5CCN6C(=O)N(C)CC6C5)C4)c3)[nH]c12 (stereo not shown) [compound 2] | 5 |  | 30 | 
Cc1ccc(F)c2cc(C(=O)Nc3cc(F)cc(N4CCC(N5CCN(CC(=O)N(C)C)CC5)C4)c3)[nH]c12 (stereo not shown) [compound 4] | 6 |  | 30 | 
CC(=O)N1CCC2(CC1)CCN(c1cc(F)cc(NC(=O)c3cc4c(F)ccc(C)c4[nH]3)c1)C2 [compound 5] | 8 |  | 40 | 
CC(=O)N1CCN(C2CCN(c3cc(F)cc(NC(=O)c4cc5c(F)ccc(C)c5[nH]4)c3)C2)CC1 (stereo not shown) [compound 9] | 8 |  | 40 | 
COCC(=O)N1CCN(c2cc(F)cc(NC(=O)c3cc4c(F)ccc(C)c4[nH]3)c2)CC1 [compound 12] | 10 |  | 50 | 
CC(=O)N1CCC2C1CCN2c1cc(F)cc(NC(=O)c2cc3c(F)ccc(C)c3[nH]2)c1 (stereo not shown) [compound 13] | 10 |  | 50 | 
Cc1ccc(F)c2cc(C(=O)Nc3cc(F)cc(N4CCC(N5CCN(C)C(=O)C5)C4)c3)[nH]c12 (stereo not shown) [compound 17] | 9 |  | 50 | 
Cc1ccc(F)c2cc(C(=O)Nc3cc(F)cc(N4CCC(N5CCCC5=O)C4)c3)[nH]c12 (stereo not shown) [compound 18] | 8 |  | 60 | 
CC(=O)N1CCC2(CC1)CN(c1cc(F)cc(NC(=O)c3cc4c(F)ccc(C)c4[nH]3)c1)C2 [compound 19] | 10 |  | 60 | 
Cc1ccc(F)c2cc(C(=O)Nc3cc(F)cc(N4CCN(C)C(=O)C4)c3)[nH]c12 [compound 20] | 9 | 60 |  | 
Cc1ccc(F)c2cc(C(=O)Nc3cc(F)cc(N4CCOC(CCO)C4)c3)[nH]c12 (stereo not shown) [compound 24] | 20 |  | 60 | 
Cc1ccc(F)c2cc(C(=O)Nc3cc(F)cc(N4CCN(C(=O)N(C)C)CC4)c3)[nH]c12 [compound 25] | 10 |  | 70 | 
Cc1ccc(F)c2cc(C(=O)Nc3cc(F)cc(C4CCN5C(=O)CCC5C4)c3)[nH]c12 (stereo not shown) [compound 26] | 10 |  | 70 | 
Cc1ccc(F)c2cc(C(=O)Nc3cccc(N4CCN5C(=O)CCC5C4)c3)[nH]c12 (stereo not shown) [compound 27] | 20 |  | 70 | 

More lines, in order of falling IC50 (SETD2(1434-1711)), values ahead:

IC50 (SETD2(1434-1711)) [nM] | IC50 (H3K36me3 in A549 cells; [1]) [nM] | IC50 (H3K36me3 in A549 cells; [2]) [nM] | SMILES | IC50 (H3K36me3 in A549 cells; Homo sapiens, A549, read-out: SETD2 A549) [nM]
1100 | 15100 |  | Cc1ccc(F)c2cc(C(=O)NC(c3nccc4ccccc34)C3CC3)[nH]c12 (stereo not shown) [Cpd. No. 507, N-(cyclopropyl(isoquinolin-1-yl)methyl)-4-fluoro-7-methyl-1H-indole-2-carboxamide] | 
60 | 2000 |  | Cc1ccc(F)c2cc(C(=O)NCC3(c4ccccc4N4CCN(C)CC4)CC3)[nH]c12 [Cpd. No. 392, 4-fluoro-7-methyl-N-((1-(2-(4-methylpiperazin-1-yl)phenyl)cyclopropyl)methyl)-1H-indole-2-carboxamide] | 
10 |  | 40 | Cc1ccc(F)c2cc(C(=O)Nc3cc(F)cc(N4CCN(C5CC5)C(=O)C4)c3)[nH]c12 [compound 10] | 
10 |  | 50 | Cc1ccc(F)c2cc(C(=O)Nc3cc(F)cc(N4CCC(N5CCOC(CO)C5)C4)c3)[nH]c12 (stereo not shown) [compound 16] | 
10 | 70 |  | Cc1ccc(F)c2cc(C(=O)Nc3cc(F)cc(N4CCC5(CCNCC5(F)F)C4)c3)[nH]c12 (stereo not shown) [compound 28] | 
7 |  | 50 | CC(=O)N1CCC2CN(c3cc(F)cc(NC(=O)c4cc5c(F)ccc(C)c5[nH]4)c3)CC21 (stereo not shown) [compound 14] | 
6 |  | 40 | Cc1ccc(F)c2cc(C(=O)Nc3cc(F)cc(N4CCC(N5CCN(CC(N)=O)CC5)C4)c3)[nH]c12 (stereo not shown) [compound 6] | 
4 |  | 30 | Cc1ccc(F)c2cc(C(=O)Nc3cc(F)cc(N4CCC(N(C)C)C4=O)c3)[nH]c12 (stereo not shown) [compound 3] | 
